Measured values taken from patent publication US20230303544A1, “LMO2 PROTEIN INHIBITORS” (UNIVERSITY OF OXFORD, priority 2020, published 2023).
Entries after “also recorded” stand apart in the source; their conditions may differ.

What was measured:
[1] = biological target: T1, LMO2-iDAb LMO2dm3 interaction (Homo sapiens, UniProt P25791); assay: LMO2-iDAb LMO2dm3 BRET assay; format: cell-based; conditions: BRET dose response, HEK293T cells, 0.01-50 μM, 22 h
T1 construct: LMO2 cDNA was cloned into the pEF-RLuc8-MCS and pEF-MCS-RLuc8 plasmids; expressed in transfected cells; host or cells: HEK293T
T1 sequence (P25791 1-158): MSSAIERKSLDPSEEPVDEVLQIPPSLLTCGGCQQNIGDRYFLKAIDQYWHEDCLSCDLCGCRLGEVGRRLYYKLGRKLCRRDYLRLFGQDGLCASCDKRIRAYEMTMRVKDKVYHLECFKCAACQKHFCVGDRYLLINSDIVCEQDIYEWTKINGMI
Method: (§1) For all BRET experiments (titration curves and competition assays) 650,000 HEK293T were seeded in each well of a 6 well plates. After 24 hours at 37° C., cells were transfected with a total of 1.6 μg of DNA mix, containing the donor+acceptor±competitor plasmids, using Lipofectamine 2000 transfection reagent (Thermo-Fisher). In dose response competition experiments, competitors were transfected with the following amount of DNA: 0.1; 0.5 and 1 μg. In single dose competition experiments, competitors were transfected with […] of DNA. Cells were detached 24 hours later, washed with PBS and seeded in a white 96-well plate (clear bottom, PerkinElmer, Cat #6005181) in OptiMEM no phenol red medium complemented with 4% FBS and cells were incubated for an additional 20-24 hours at 37° C. before the BRET assay reading. A detailed BRET protocol is provided by Bery and Rabbitts, (2019).
Compounds were prepared in 100% DMSO at 10 mM. For BRET competition assays, cells were treated with the indicated compounds at concentration of 1 (or 5), 10 and 20 μM for 22 h. For BRET-based dose response experiments, cells were treated with compounds at concentration of 0.01, 0.1, 1, 4, 10, 25 and 50 μM for 22 h. The compounds were diluted in the BRET medium: OptiMEM no phenol red (Life Technologies) supplemented with 4% FBS and with a final concentration of 0.2% DMSO.
(§2) BRET2 signal was determined immediately after injection of coelenterazine 400a substrate (10 μM final) to cells (Cayman Chemicals), using a CLARIOstar instrument (BMG Labtech) with a luminescence module. Total GFP^2 fluorescence was detected with excitation and emission peaks set at 405 nm and 515 nm respectively. Total RLuc8 luminescence was measured with the Luminescence 400-700 nm-wavelength filter.
The BRET signal or BRET ratio corresponds to the light emitted by the GFP^2 acceptor constructs (515 nm±30) upon addition of coelenterazine 400a divided by the light emitted by the RLuc8 donor constructs (410 nm±80). The background signal is subtracted from that BRET ratio using the donor-only negative control where only the RLuc8 fusion plasmid is transfected into the cells. The normalized BRET ratio is the BRET ratio normalized to a negative control (iDAb control or DMSO control) during a competition assay. Total GFP^2 and RLuc8 signals were used to control the protein expression from each plasmid.

[2] = biological target: T2, LMO2-iDAb LMO2 (unmutated iDAb) interaction (Homo sapiens, UniProt P25791); assay: LMO2-iDAb LMO2 (unmutated iDAb) BRET assay; format: cell-based; conditions: BRET dose response
T2 construct: LMO2 cDNA was cloned into the pEF-RLuc8-MCS and pEF-MCS-RLuc8 plasmids; expressed in transfected cells; host or cells: HEK293T
T2 sequence (P25791 1-158): T1 sequence (P25791 1-158)
Method: as §1
Compounds were prepared in 100% DMSO at 10 mM. […]
as §2, with “filter. […]” for “filter.”

scFv-LMO2 = biological target: T3, scFv-LMO2 (Homo sapiens, UniProt P25791); assay: Photoaffinity labelling (PAL) pulldown; format: binding; conditions: 20 μM Abd-L26, UV light, avidin beads
T3 construct: made in house; host or cells: E. coli C41 (DE3)
T3 sequence (P25791 1-158): T1 sequence (P25791 1-158)
Method: 20 μM of Abd-L26 with or without 100 μM of Abd-L9 (competitor) are added in a final volume of 400 μL of PBS with 40 μg of purified protein of interest (scFv-LMO2). The same samples are prepared for the no UV controls. The samples are incubated for 25 minutes at RT. The samples to be crosslinked are put into ice and under the UV lamp for crosslinking for 1 hour. The no UV controls are kept on ice. During the 1 hour of crosslinking, the agarose monomeric avidin beads (Cat #20228, Thermofisher) are washed twice with PBS. After the crosslink, 20 μL of washed beads are added in all the samples (crosslinked and non-crosslinked) and incubated for 2 hours at 4° C. on a roller. 2 hours later, wash the beads three times with 400 μL of PBS. The samples are finally denatured with 50 μL of 2× loading buffer with BME added directly on the beads (and boiled at 100° C. for 5 minutes) and loaded for a western blot analysis.

Compound: COc1cccc(CN2CCN(c3nc(C(=O)Nc4ccc(OC)nc4)cs3)CC2)c1 [Abd-L22, 2-(4-(3-methoxybenzyl)piperazin-1-yl)-N-(6-methoxypyridin-3-yl)thiazole-4-carboxamide]
- IC50 [1]: 6.8 µM
- concentration at which LMO2-iDAb LMO2 interaction is inhibited [2]: above 25 μM

Compound: O=C(CCCC[C@H]1SC[C@H]2NC(=O)N[C@H]21)NCCOCCOCC(=O)Nc1ccc(NC(=O)c2coc(N3CCN(Cc4ccc(C(=O)c5ccccc5)cc4)CC3)n2)cc1 [Abd-L26, 2-(4-(4-benzoylbenzyl)piperazin-1-yl)-N-(4-(2-(2-(2-(5-((3aR,4R,6aS)-2-oxohexahydro-1H-thieno[3,4-d]imidazol-4-yl)pentanamido)ethoxy)ethoxy)acetamido)phenyl)oxazole-4-carboxamide]
- photo-crosslinking to LMO2 protein (pulldown, Western blot) (scFv-LMO2): observed a biotin labelled protein; also recorded: confirmed binding to LMO2 protein
